Reference: patent publication US20260022142A1, “MACROCYCLIC IMMUNOMODULATORS” (Bristol-Myers Squibb Company, priority 2022, published 2026)
Bridge positions count the residues as written; N and C are the ends. Square brackets hold non-standard residues; d marks the D form. Peptide text beside a SMILES is read from it. * marks the point of attachment. Tyr(3,5-F2) = N[C@@H](Cc1cc(F)c(O)c(F)c1)C(=O)O; Tyr(3-Cl) = N[C@@H](Cc1ccc(O)c(Cl)c1)C(=O)O; Bip = N[C@@H](Cc1ccc(-c2ccccc2)cc1)C(=O)O; Phe(3-CN) = N#Cc1cccc(C[C@H](N)C(=O)O)c1; Phe(3-F) = N[C@@H](Cc1cccc(F)c1)C(=O)O; Phe(3-Me) = Cc1cccc(C[C@H](N)C(=O)O)c1; Phe(4-Me) = Cc1ccc(C[C@H](N)C(=O)O)cc1; 3Pal = N[C@@H](Cc1cccnc1)C(=O)O; 4Pal = N[C@@H](Cc1ccncc1)C(=O)O; Cha = N[C@@H](CC1CCCCC1)C(=O)O; Carboxymethyl = O=C(O)C*; Orn = NCCC[C@H](N)C(=O)O; Aun = NCCCCCCCCCCC(=O)O; Dab = NCC[C@H](N)C(=O)O; Dap = NC[C@H](N)C(=O)O; AEEA = NCCOCCOCC(=O)O

What follows are compounds tested against T1, PD-1/PD-L1 interaction (PE-labeled human PD-L1-Ig binding to Jurkat cell line over-expressing human PD-1) (Homo sapiens, UniProt Q15116) (assay: Jurkat-PD-1 Cell Binding High-Content Screening Assay (CBA)). Conditions: Jurkat cell line over-expressing human PD-1; PE-labeled PD-L1-Ig 20 nM final; read-out: Jurkat hPD1-PDL1 IC50.
T1 construct: expressed in transfected cells; host or cells: Jurkat
Type: cell-based
Procedure, shortened: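 Human PD-L1-Ig carrying a covalent PE label on its Ig tag serves as the probe, applied at 20 nM final to compound-treated (2 h, 37° C) Jurkat-hPD-1 cells in medium with 10% fetal calf serum. After one hour, fixation and nuclear staining precede high-content image analysis.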

T1 sequence (Q15116 25-288): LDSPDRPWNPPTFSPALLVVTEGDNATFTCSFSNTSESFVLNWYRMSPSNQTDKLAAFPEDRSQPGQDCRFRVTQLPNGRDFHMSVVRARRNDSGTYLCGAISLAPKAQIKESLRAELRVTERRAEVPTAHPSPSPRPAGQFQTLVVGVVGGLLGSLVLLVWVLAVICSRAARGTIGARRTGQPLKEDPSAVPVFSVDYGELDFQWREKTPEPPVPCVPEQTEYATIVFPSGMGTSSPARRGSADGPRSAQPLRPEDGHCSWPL

Row | SMILES | IC50
1 | Cc1cccc(C[C@@H]2NC(=O)[C@H](CC(=O)O)NC(=O)[C@H](Cc3ccc(OCC(=O)O)cc3)NC(=O)[C@H](CN)NC(=O)CSC[C@@H](C(=O)N[C@@H](CCN)C(=O)NCCOCCOCC(=O)NCCCCCCCCCCC(=O)O)NC(=O)[C@H](CCCN)NC(=O)[C@H](C(C)C)NC(=O)[C@H](CC3CCCCC3)NC(=O)[C@H](CCN)NC(=O)[C@@H](CC(C)C)NC(=O)[C@H](CCCN)NC(=O)[C@H](Cc3cccc(C#N)c3)NC(=O)[C@H](Cc3ccc(-c4ccccc4)cc3)NC(=O)[C@H](Cc3ccc(O)cc3)NC2=O)c1 [Compound 2051] ({CH2CO}-[Dap]Y(Carboxymethyl)D[Phe(3-Me)]Y[Bip][Phe(3-CN)][Orn][dL][Dab][Cha]V[Orn]C[Dab][AEEA][Aun]-OH; thioether N-14) | 32.6 nM
2 | Cc1cccc(C[C@@H]2NC(=O)[C@H](CC(=O)O)NC(=O)[C@H](Cc3ccc(OCC(=O)O)cc3)NC(=O)[C@H](CN)NC(=O)CSC[C@@H](C(=O)N[C@@H](CCN)C(=O)NCCOCCOCC(=O)NCCCCCCCCCCC(=O)O)NC(=O)[C@H](CCCN)NC(=O)[C@H](C(C)C)NC(=O)[C@H](CC3CCCCC3)NC(=O)[C@H](CCN)NC(=O)[C@@H](CC(C)C)NC(=O)[C@H](CCCN)NC(=O)[C@H](Cc3cccc(F)c3)NC(=O)[C@H](Cc3ccc(-c4ccccc4)cc3)NC(=O)[C@H](Cc3ccc(O)cc3)NC2=O)c1 [Compound 2052] ({CH2CO}-[Dap]Y(Carboxymethyl)D[Phe(3-Me)]Y[Bip][Phe(3-F)][Orn][dL][Dab][Cha]V[Orn]C[Dab][AEEA][Aun]-OH; thioether N-14) | 14.7 nM
3 | Cc1cccc(C[C@@H]2NC(=O)[C@H](CC(=O)O)NC(=O)[C@H](Cc3ccc(OCC(=O)O)cc3)NC(=O)[C@H](CN)NC(=O)CSC[C@@H](C(=O)N[C@@H](CCN)C(=O)NCCOCCOCC(=O)NCCCCCCCCCCC(=O)O)NC(=O)[C@H](CCCN)NC(=O)[C@H](C(C)C)NC(=O)[C@H](CC3CCCCC3)NC(=O)[C@H](CCN)NC(=O)[C@@H](CC(C)C)NC(=O)[C@H](CCCN)NC(=O)[C@H](Cc3ccncc3)NC(=O)[C@H](Cc3ccc(-c4ccccc4)cc3)NC(=O)[C@H](Cc3ccc(O)cc3)NC2=O)c1 [Compound 2053] ({CH2CO}-[Dap]Y(Carboxymethyl)D[Phe(3-Me)]Y[Bip][4Pal][Orn][dL][Dab][Cha]V[Orn]C[Dab][AEEA][Aun]-OH; thioether N-14) | 6.9 nM
4 | Cc1ccc(C[C@@H]2NC(=O)[C@H](Cc3ccc(-c4ccccc4)cc3)NC(=O)[C@H](Cc3ccc(O)cc3)NC(=O)[C@H](Cc3cccc(C)c3)NC(=O)[C@H](CC(=O)O)NC(=O)[C@H](Cc3ccc(OCC(=O)O)cc3)NC(=O)[C@H](CN)NC(=O)CSC[C@@H](C(=O)N[C@@H](CCN)C(=O)NCCOCCOCC(=O)NCCCCCCCCCCC(=O)O)NC(=O)[C@H](CCCN)NC(=O)[C@H](C(C)C)NC(=O)[C@H](CC3CCCCC3)NC(=O)[C@H](CCN)NC(=O)[C@@H](CC(C)C)NC(=O)[C@H](CCCN)NC2=O)cc1 [Compound 2054] ({CH2CO}-[Dap]Y(Carboxymethyl)D[Phe(3-Me)]Y[Bip][Phe(4-Me)][Orn][dL][Dab][Cha]V[Orn]C[Dab][AEEA][Aun]-OH; thioether N-14) | 12.9 nM
5 | COc1ccc(C[C@@H]2NC(=O)[C@H](Cc3ccc(-c4ccccc4)cc3)NC(=O)[C@H](Cc3ccc(O)cc3)NC(=O)[C@H](Cc3cccc(C)c3)NC(=O)[C@H](CC(=O)O)NC(=O)[C@H](Cc3ccc(OCC(=O)O)cc3)NC(=O)[C@H](CN)NC(=O)CSC[C@@H](C(=O)N[C@@H](CCN)C(=O)NCCOCCOCC(=O)NCCCCCCCCCCC(=O)O)NC(=O)[C@H](CCCN)NC(=O)[C@H](C(C)C)NC(=O)[C@H](CC3CCCCC3)NC(=O)[C@H](CCN)NC(=O)[C@@H](CC(C)C)NC(=O)[C@H](CCCN)NC2=O)cc1 [Compound 2056] ({CH2CO}-[Dap]Y(Carboxymethyl)D[Phe(3-Me)]Y[Bip]Y(Me)[Orn][dL][Dab][Cha]V[Orn]C[Dab][AEEA][Aun]-OH; thioether N-14) | 12.6 nM
6 | Cc1cccc(C[C@@H]2NC(=O)[C@H](CC(=O)O)NC(=O)[C@H](Cc3ccc(OCC(=O)O)cc3)NC(=O)[C@H](CN)NC(=O)CSC[C@@H](C(=O)N[C@@H](CCN)C(=O)NCCOCCOCC(=O)NCCCCCCCCCCC(=O)O)NC(=O)[C@H](CCCN)NC(=O)[C@H](C(C)C)NC(=O)[C@H](CC3CCCCC3)NC(=O)[C@H](CCN)NC(=O)[C@@H](CC(C)C)NC(=O)[C@H](CCCN)NC(=O)[C@H](Cc3ccc(O)c(Cl)c3)NC(=O)[C@H](Cc3ccc(-c4ccccc4)cc3)NC(=O)[C@H](Cc3ccc(O)cc3)NC2=O)c1 [Compound 2057] ({CH2CO}-[Dap]Y(Carboxymethyl)D[Phe(3-Me)]Y[Bip][Tyr(3-Cl)][Orn][dL][Dab][Cha]V[Orn]C[Dab][AEEA][Aun]-OH; thioether N-14) | 8 nM

Second part, the compound after the results:

Row | IC50 | SMILES
7 | 7.9 nM | Cc1cccc(C[C@@H]2NC(=O)[C@H](CC(=O)O)NC(=O)[C@H](Cc3ccc(OCC(=O)O)cc3)NC(=O)[C@H](CN)NC(=O)CSC[C@@H](C(=O)N[C@@H](CCN)C(=O)NCCOCCOCC(=O)NCCCCCCCCCCC(=O)O)NC(=O)[C@H](CCCN)NC(=O)[C@H](C(C)C)NC(=O)[C@H](CC3CCCCC3)NC(=O)[C@H](CCN)NC(=O)[C@@H](CC(C)C)NC(=O)[C@H](CCCN)NC(=O)[C@H](Cc3cccnc3)NC(=O)[C@H](Cc3ccc(-c4ccccc4)cc3)NC(=O)[C@H](Cc3ccc(O)cc3)NC2=O)c1 [Compound 2055] ({CH2CO}-[Dap]Y(Carboxymethyl)D[Phe(3-Me)]Y[Bip][3Pal][Orn][dL][Dab][Cha]V[Orn]C[Dab][AEEA][Aun]-OH; thioether N-14)
8 | 4.7 nM | Cc1cccc(C[C@@H]2NC(=O)[C@H](CC(=O)O)NC(=O)[C@H](Cc3ccc(OCC(=O)O)cc3)NC(=O)[C@H](CN)NC(=O)CSC[C@@H](C(=O)N[C@@H](CCN)C(=O)NCCOCCOCC(=O)NCCCCCCCCCCC(=O)O)NC(=O)[C@H](CCCN)NC(=O)[C@H](C(C)C)NC(=O)[C@H](CC3CCCCC3)NC(=O)[C@H](CCN)NC(=O)[C@@H](CC(C)C)NC(=O)[C@H](CCCN)NC(=O)[C@H](Cc3cc(F)c(O)c(F)c3)NC(=O)[C@H](Cc3ccc(-c4ccccc4)cc3)NC(=O)[C@H](Cc3ccc(O)cc3)NC2=O)c1 [Compound 2058] ({CH2CO}-[Dap]Y(Carboxymethyl)D[Phe(3-Me)]Y[Bip][Tyr(3,5-F2)][Orn][dL][Dab][Cha]V[Orn]C[Dab][AEEA][Aun]-OH; thioether N-14)
9 | 4 nM | Cc1cccc(C[C@@H]2NC(=O)[C@H](CC(=O)O)NC(=O)[C@H](Cc3ccc(OCC(=O)O)cc3)NC(=O)[C@H](CN)NC(=O)CSC[C@@H](C(=O)N[C@@H](CCN)C(=O)NCCOCCOCC(=O)NCCCCCCCCCCC(=O)O)NC(=O)[C@H](CCCN)NC(=O)[C@H](C(C)C)NC(=O)[C@H](CC3CCCCC3)NC(=O)[C@H](CCN)NC(=O)[C@@H](CC(C)C)NC(=O)[C@H](CCCN)NC(=O)[C@H](Cc3ccc(O)cc3)NC(=O)[C@H](Cc3ccc(-c4ccccc4)cc3)NC(=O)[C@H](Cc3ccc(OCC(=O)O)cc3)NC2=O)c1 [Compound 2059] ({CH2CO}-[Dap]Y(Carboxymethyl)D[Phe(3-Me)]Y(Carboxymethyl)[Bip]Y[Orn][dL][Dab][Cha]V[Orn]C[Dab][AEEA][Aun]-OH; thioether N-14)
